Experimental data from patent US9469650B2, “Melampomagnolide B derivatives” (BOARD OF TRUSTEES OF THE UNIVERSITY OF ARKANSAS, priority 2013, dated 2016).
Read-outs that look alike come from different tables or passages of the source.

Experiments:
CCRF-CEM = test: panel of 60 human tumor cell lines, growth inhibition (Leukemia); settings: Homo sapiens
MOLT-4 = test: as above; settings: Homo sapiens
LOX IMVI = test: panel of 60 human tumor cell lines, growth inhibition (Melanoma); settings: Homo sapiens
SK-MEL-2 = test: as above; settings: Homo sapiens
SK-MEL-5 = test: as above; settings: Homo sapiens
HCC-2998 = test: panel of 60 human tumor cell lines, growth inhibition (Colon Cancer); settings: Homo sapiens
HCT-15 = test: as above; settings: Homo sapiens
CAKI-1 = test: panel of 60 human tumor cell lines, growth inhibition (Renal Cancer); settings: Homo sapiens
RXF 393 = test: as above; settings: Homo sapiens
SN12C = test: as above; settings: Homo sapiens
MCF7 = test: panel of 60 human tumor cell lines, growth inhibition (Breast Cancer); settings: Homo sapiens
MDA-MB-231/ATCC = test: as above; settings: Homo sapiens
SK-OV-3 = test: panel of 60 human tumor cell lines, growth inhibition (Ovarian Cancer); settings: Homo sapiens
DU-145 = test: panel of 60 human tumor cell lines, growth inhibition (Prostate Cancer); settings: Homo sapiens
HOP-62 = test: panel of 60 human tumor cell lines, growth inhibition (Non-Small Cell Lung Cancer); settings: Homo sapiens
HOP-92 = test: as above; settings: Homo sapiens
NCI-H226 = test: as above; settings: Homo sapiens
NCI-H460 = test: as above; settings: Homo sapiens

Question: Which “Percent Growth” value (HL-60(TB); Log10 Concentration −4.0) does the source give for C=C1C(=O)O[C@H]2[C@H]1CC/C(COC(=S)n1ccnc1)=C\CC[C@@]1(C)O[C@@H]21 [JVM 66] here?
Answer: −62%

Question: What about the “Percent Growth” value (HL-60(TB); Log10 Concentration −5.0) of the same molecule?
Answer: 16%

Question: What about the “Percent Growth” value (HL-60(TB); Log10 Concentration −6.0) of the same molecule?
Answer: 102%

Question: What about the “Percent Growth” value (HL-60(TB); Log10 Concentration −7.0) of the same molecule?
Answer: 101%

Question: What about the “Percent Growth” value (HL-60(TB); Log10 Concentration −8.0) of the same molecule?
Answer: 95%

Question: And the GI50 (CCRF-CEM; NCI five dose)?
Answer: 3.38 µM

Question: And the CC50 (CCRF-CEM; read-out: LC50)?
Answer: > 100 µM

Question: What about the IC (TGI) (CCRF-CEM; read-out: TGI) of the same molecule?
Answer: 16.6 µM

Question: What about the GI50 (MOLT-4; MOLT-4) of the same molecule?
Answer: 6.38 µM

Question: What about the CC50 (MOLT-4; MOLT-4, read-out: LC50) of the same molecule?
Answer: > 100 µM

Question: What about the IC (TGI) (MOLT-4; MOLT-4, read-out: TGI) of the same molecule?
Answer: 34.4 µM

Question: What about the GI50 (LOX IMVI; NCI five dose) of the same molecule?
Answer: 3.23 µM

Question: What about the CC50 (LOX IMVI; read-out: LC50) of the same molecule?
Answer: 43.1 µM

Question: What about the IC (TGI) (LOX IMVI; read-out: TGI) of the same molecule?
Answer: 11.8 µM

Question: And the GI50 (SK-MEL-2; SK-MEL-2)?
Answer: 16.4 µM

Question: And the CC50 (SK-MEL-2; SK-MEL-2, read-out: LC50)?
Answer: 93 µM

Question: And the IC (TGI) (SK-MEL-2; SK-MEL-2, read-out: TGI)?
Answer: 39.6 µM

Question: What about the GI50 (SK-MEL-5; SK-MEL-5) of the same molecule?
Answer: 13.3 µM

Question: What about the CC50 (SK-MEL-5; SK-MEL-5, read-out: LC50) of the same molecule?
Answer: 55.6 µM

Question: What about the IC (TGI) (SK-MEL-5; SK-MEL-5, read-out: TGI) of the same molecule?
Answer: 27.7 µM

Question: What about the GI50 (HCC-2998; HCC 2998) of the same molecule?
Answer: 16.8 µM

Question: What about the CC50 (HCC-2998; HCC 2998, read-out: LC50) of the same molecule?
Answer: 63.2 µM

Question: What about the IC (TGI) (HCC-2998; HCC 2998, read-out: TGI) of the same molecule?
Answer: 12.6 µM

Question: What about the GI50 (HCT-15; HCT-15) of the same molecule?
Answer: 6.88 µM

Question: What about the CC50 (HCT-15; HCT-15, read-out: LC50) of the same molecule?
Answer: 89.2 µM

Question: What about the IC (TGI) (HCT-15; HCT-15, read-out: TGI) of the same molecule?
Answer: 27.1 µM

Question: And the GI50 (CAKI-1; CAKI-1)?
Answer: 12.6 µM

Question: What about the CC50 (CAKI-1; CAKI-1, read-out: LC50) of the same molecule?
Answer: 73.8 µM

Question: What about the IC (TGI) (CAKI-1; CAKI-1, read-out: TGI) of the same molecule?
Answer: 30.5 µM

Question: What about the GI50 (RXF 393; RXF 393, RXF 393, NCI five dose) of the same molecule?
Answer: 3.08 µM

Question: And the CC50 (RXF 393; RXF 393, read-out: LC50)?
Answer: 57.4 µM

Question: What about the IC (TGI) (RXF 393; RXF 393, read-out: TGI) of the same molecule?
Answer: 11.4 µM

Question: What about the GI50 (SN12C) of the same molecule?
Answer: 13.7 µM

Question: What about the CC50 (SN12C; read-out: LC50) of the same molecule?
Answer: 85.3 µM

Question: And the IC (TGI) (SN12C; read-out: TGI)?
Answer: 18.8 µM

Question: What about the GI50 (MCF7; MCF7, MCF7, NCI five dose) of the same molecule?
Answer: 4.19 µM

Question: And the CC50 (MCF7; MCF7, read-out: LC50)?
Answer: 76.7 µM

Question: And the IC (TGI) (MCF7; MCF7, read-out: TGI)?
Answer: 19.8 µM

Question: What about the GI50 (MDA-MB-231/ATCC; MDA-MB-231) of the same molecule?
Answer: 15.8 µM

Question: What about the CC50 (MDA-MB-231/ATCC; MDA-MB-231, read-out: LC50) of the same molecule?
Answer: 75.7 µM

Question: What about the IC (TGI) (MDA-MB-231/ATCC; MDA-MB-231, read-out: TGI) of the same molecule?
Answer: 34.6 µM

Question: What about the GI50 (SK-OV-3; SK-OV-3) of the same molecule?
Answer: 61.4 µM

Question: And the CC50 (SK-OV-3; SK-OV-3, read-out: LC50)?
Answer: > 100 µM

Question: And the IC (TGI) (SK-OV-3; SK-OV-3, read-out: TGI)?
Answer: > 100 µM

Question: What about the GI50 (DU-145; DU-145) of the same molecule?
Answer: 12.2 µM

Question: What about the CC50 (DU-145; DU-145, read-out: LC50) of the same molecule?
Answer: 59.1 µM

Question: And the IC (TGI) (DU-145; DU-145, read-out: TGI)?
Answer: 26.9 µM

Question: And the GI50 (HOP-62; HOP-62)?
Answer: 36.5 µM

Question: What about the CC50 (HOP-62; HOP-62, read-out: LC50) of the same molecule?
Answer: > 100 µM

Question: And the GI50 (HOP-92; HOP-92, HOP-92, NCI five dose)?
Answer: 6.83 µM

Question: What about the CC50 (HOP-92; HOP-92, read-out: LC50) of the same molecule?
Answer: 83.2 µM

Question: And the IC (TGI) (HOP-92; HOP-92, read-out: TGI)?
Answer: 26.9 µM

Question: And the GI50 (NCI-H226; NCI-H226)?
Answer: 99.6 µM

Question: What about the CC50 (NCI-H226; NCI-H226, read-out: LC50) of the same molecule?
Answer: > 100 µM

Question: What about the IC (TGI) (NCI-H226; NCI-H226, read-out: TGI) of the same molecule?
Answer: > 100 µM

Question: What about the GI50 (NCI-H460; NCI-H460) of the same molecule?
Answer: 15.7 µM

Question: What about the CC50 (NCI-H460; NCI-H460, read-out: LC50) of the same molecule?
Answer: > 100 µM

Question: And the IC (TGI) (NCI-H460; NCI-H460, read-out: TGI)?
Answer: 71.4 µM
